What all share (format): cell-based
Experiment [1] addresses T1, Protein cereblon/Androgen receptor (Homo sapiens, UniProt P10275+Q96SW2). Description: PROTAC activity at CRBN/AR in human 22Rv1 cells assessed as induction of AR degradation at 0.01 uM incubated for 24 hrs by Western blot analysis relative to control.
Experiment [2] concerns the target T1, Protein cereblon/Androgen receptor. Description: PROTAC activity at CRBN/AR in human 22Rv1 cells assessed as induction of AR degradation at 0.1 uM incubated for 24 hrs by Western blot analysis relative to control.
The test system of experiment [3] is Protein cereblon/Androgen receptor (Homo sapiens), P10275+Q96SW2 [UNDEFINED MUTATION]. Description: PROTAC activity at CRBN/Androgen receptor splice variant 7 in human 22Rv1 cells assessed as induction of AR-V7 degradation at 0.01 uM incubated for 24 hrs by Western blot analysis relative to control.
Sequence of Protein cereblon/Androgen receptor (Homo sapiens), P10275+Q96SW2 [UNDEFINED MUTATION] (P10275 whole entry, looked up, change not shown, canonical isoform): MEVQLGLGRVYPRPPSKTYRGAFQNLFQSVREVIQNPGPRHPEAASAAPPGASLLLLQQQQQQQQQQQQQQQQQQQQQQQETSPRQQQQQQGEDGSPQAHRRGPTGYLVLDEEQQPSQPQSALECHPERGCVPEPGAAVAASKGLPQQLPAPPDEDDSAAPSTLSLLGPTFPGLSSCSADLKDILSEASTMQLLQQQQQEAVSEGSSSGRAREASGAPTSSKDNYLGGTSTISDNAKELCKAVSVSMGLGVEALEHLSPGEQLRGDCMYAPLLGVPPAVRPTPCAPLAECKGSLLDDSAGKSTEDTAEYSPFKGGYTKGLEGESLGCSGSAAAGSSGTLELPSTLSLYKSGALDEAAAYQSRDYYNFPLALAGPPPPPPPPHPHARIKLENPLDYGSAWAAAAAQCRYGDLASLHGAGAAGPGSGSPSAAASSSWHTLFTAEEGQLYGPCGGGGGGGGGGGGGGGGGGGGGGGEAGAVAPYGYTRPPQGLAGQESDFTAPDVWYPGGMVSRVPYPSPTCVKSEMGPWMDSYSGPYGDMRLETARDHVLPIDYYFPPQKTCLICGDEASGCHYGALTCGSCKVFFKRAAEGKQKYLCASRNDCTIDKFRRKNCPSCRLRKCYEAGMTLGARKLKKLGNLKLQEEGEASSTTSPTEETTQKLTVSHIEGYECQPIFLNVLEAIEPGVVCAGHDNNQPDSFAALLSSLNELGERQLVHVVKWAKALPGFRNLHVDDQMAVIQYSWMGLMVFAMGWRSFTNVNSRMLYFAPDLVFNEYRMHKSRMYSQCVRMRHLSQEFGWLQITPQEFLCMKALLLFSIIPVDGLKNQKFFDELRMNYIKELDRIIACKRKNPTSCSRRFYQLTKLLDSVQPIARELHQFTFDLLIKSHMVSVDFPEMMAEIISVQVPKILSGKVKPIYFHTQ
Sequence of Protein cereblon/Androgen receptor (Homo sapiens), P10275+Q96SW2 [UNDEFINED MUTATION] (Q96SW2 whole entry, looked up, change not shown, canonical isoform): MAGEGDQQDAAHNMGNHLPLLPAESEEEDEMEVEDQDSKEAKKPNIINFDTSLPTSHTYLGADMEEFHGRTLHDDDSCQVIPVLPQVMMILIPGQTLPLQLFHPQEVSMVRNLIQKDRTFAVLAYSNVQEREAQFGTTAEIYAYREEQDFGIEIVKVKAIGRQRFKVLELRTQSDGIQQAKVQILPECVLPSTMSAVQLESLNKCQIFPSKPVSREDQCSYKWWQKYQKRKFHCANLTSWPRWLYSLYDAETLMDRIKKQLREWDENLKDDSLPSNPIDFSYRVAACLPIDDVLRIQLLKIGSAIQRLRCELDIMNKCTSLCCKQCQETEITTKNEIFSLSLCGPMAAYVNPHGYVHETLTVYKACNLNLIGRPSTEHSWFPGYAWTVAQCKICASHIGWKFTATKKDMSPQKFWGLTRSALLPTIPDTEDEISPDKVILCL
Experiment [4] shares this test system. Description: PROTAC activity at CRBN/Androgen receptor splice variant 7 in human 22Rv1 cells assessed as induction of AR-V7 degradation at 0.1 uM incubated for 24 hrs by Western blot analysis relative to control.
Experiment [5] concerns the target T1, Protein cereblon/Androgen receptor. Description: PROTAC activity at CRBN/AR in human VCaP cells assessed as induction of AR degradation at 0.01 uM incubated for 24 hrs by Western blot analysis relative to control.
For experiment [6] the target is unchanged. Description: PROTAC activity at CRBN/AR in human VCaP cells assessed as induction of AR degradation at 0.1 uM incubated for 24 hrs by Western blot analysis relative to control.
The subject of experiment [7] is Protein cereblon/Androgen receptor (Homo sapiens), P10275+Q96SW2 [UNDEFINED MUTATION]. Description: PROTAC activity at CRBN/Androgen receptor splice variant 7 in human VCaP cells assessed as induction of AR-V7 degradation at 0.01 uM incubated for 24 hrs by Western blot analysis relative to control.
For experiment [8] the test system is unchanged. Description: PROTAC activity at CRBN/Androgen receptor splice variant 7 in human VCaP cells assessed as induction of AR-V7 degradation at 0.1 uM incubated for 24 hrs by Western blot analysis relative to control.
The target of experiment [9] is T2, Protein cereblon/Eukaryotic peptide chain release factor GTP-binding subunit ERF3A (Homo sapiens, UniProt Q96SW2+P15170). Description: Molecular glue activity at CRBN/GSPT1 in human 22Rv1 cells assessed as induction of GSPT1 degradation at 0.01 uM incubated for 24 hrs by Western blot analysis relative to control.
T2 sequence (P15170 whole entry, looked up): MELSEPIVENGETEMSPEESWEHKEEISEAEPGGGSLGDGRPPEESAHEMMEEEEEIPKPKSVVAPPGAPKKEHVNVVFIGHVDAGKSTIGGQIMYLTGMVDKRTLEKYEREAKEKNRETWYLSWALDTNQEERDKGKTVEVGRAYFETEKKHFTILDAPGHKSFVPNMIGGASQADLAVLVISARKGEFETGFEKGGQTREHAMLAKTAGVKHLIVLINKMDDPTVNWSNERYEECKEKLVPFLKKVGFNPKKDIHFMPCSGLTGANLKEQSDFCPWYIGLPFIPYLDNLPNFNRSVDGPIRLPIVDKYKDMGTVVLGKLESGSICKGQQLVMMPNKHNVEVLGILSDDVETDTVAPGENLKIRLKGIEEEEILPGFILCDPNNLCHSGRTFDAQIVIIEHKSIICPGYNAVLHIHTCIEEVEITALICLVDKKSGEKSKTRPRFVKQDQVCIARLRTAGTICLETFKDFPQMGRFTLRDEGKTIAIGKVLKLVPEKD
T2 sequence (Q96SW2 whole entry, looked up): as the sequence (Q96SW2 whole entry, looked up, change not shown, canonical isoform) above
In experiment [10] the target is T2, Protein cereblon/Eukaryotic peptide chain release factor GTP-binding subunit ERF3A. Description: Molecular glue activity at CRBN/GSPT1 in human 22Rv1 cells assessed as induction of GSPT1 degradation at 0.1 uM incubated for 24 hrs by Western blot analysis relative to control.

T1 sequence (P10275 whole entry, looked up): as the sequence (P10275 whole entry, looked up, change not shown, canonical isoform) above
T1 sequence (Q96SW2 whole entry, looked up): as the sequence (Q96SW2 whole entry, looked up, change not shown, canonical isoform) above

On to `CC(C)(c1ccc(OCc2cncnc2)cc1)c1cc(Cl)c(OCC2CCN(C(=O)CCCCCNc3ccc4c(c3)C(=O)N(C3CCC(=O)NC3=O)C4=O)CC2)c(C#N)c1` (stereo not given), for which the Activity in [1] came out at 80.3%; in experiment [2] it was 85.7%; in experiment [3] it was 75.2%; in [4] it was 74.7%; in experiment [5], 72.4%; in experiment [6], 74.7%. Also, the Activity in experiment [7] was 84.2%; in experiment [8] it was 94%; in experiment [9] it was 97.6%; in experiment [10], 97.5%.
As to `COc1ccc(C(C)(C)c2cc(Cl)c(OCC3CCN(C(=O)CCCCCNc4ccc5c(c4)C(=O)N(C4CCC(=O)NC4=O)C5=O)CC3)c(Cl)c2)cc1` (stereo not given), the Activity was 39.7% in [1]; 72.9% in experiment [2]; 11.5% in experiment [3]; 57.3% in [4]; less than 5% in [5]; 69.8% in [6]. In addition, the Activity in [7] was less than 5%; in experiment [8], 69.1%; in experiment [9], 72.9%; in experiment [10], 93.3%.
As to `CC(C)(c1ccc(OCC2COC2)cc1)c1cc(Cl)c(OCC2CCN(C(=O)CCCCCNc3ccc4c(c3)C(=O)N(C3CCC(=O)NC3=O)C4=O)CC2)c(C#N)c1` (stereo not given), the Activity in [1] was found to be 78.3%; in [2], 67.1%; in experiment [3] it was 64.2%; in experiment [4], 71%; in experiment [5] it was 82.5%; in [6], 81.2%. Further, the Activity was 34.8% in [7], 27.8% in experiment [8], 96.8% in experiment [9] and 96.5% in [10].
Consider `CC(C)(c1ccc(OCCCCl)cc1)c1ccc(OCC2CCN(C(=O)CCCCCNc3ccc4c(c3)C(=O)N(C3CCC(=O)NC3=O)C4=O)CC2)cc1` (stereo not given), for which the Activity was 13.9% in experiment [1]; 30% in experiment [2]; less than 5% in [3]; 5.1% in experiment [4]; less than 5% in [5]; less than 5% in experiment [6]. Moreover, the Activity in [7] is less than 5%; in experiment [8] it was 28.6%; in experiment [9], 37.3%; in experiment [10], 92.8%.
Regarding `CC(C)(c1ccc(OCC2CCOCC2)cc1)c1cc(Cl)c(OCC2CCN(C(=O)CCCCCNc3ccc4c(c3)C(=O)N(C3CCC(=O)NC3=O)C4=O)CC2)c(C#N)c1` (stereo not given), the Activity in experiment [1] was 48%; in [2], 79.3%; in experiment [3] it was 68.5%; in experiment [4], 83.9%; in experiment [5], less than 5%; in experiment [6] it was 63%. Also, the Activity was less than 5% in [7], less than 5% in experiment [8], 93.6% in experiment [9] and 96.1% in experiment [10].
In the case of `COc1ccc(C(C)(C)c2cc(Cl)c(OCC3CCN(C(=O)CCCCCNc4ccc(C(=O)N[C@H]5CCC(=O)NC5=O)c(F)c4)CC3)c(C#N)c2)cc1`, the Activity in [1] was 23.9%; in experiment [2], less than 5%; in experiment [3] it was 14.5%; in experiment [4], less than 5%; in experiment [5] it was 15.7%; in [6], less than 5%. The Activity in experiment [7], in experiment [8], in experiment [9] and in [10] was less than 5% throughout.
As to `CC1(COc2ccc(C(C)(C)c3cc(Cl)c(OCC4CCN(C(=O)CCCCCNc5ccc6c(c5)C(=O)N(C5CCC(=O)NC5=O)C6=O)CC4)c(C#N)c3)cc2)COC1` (stereo not given), the Activity in [1] stood at 66.4%; in [2], 80.8%; in experiment [3] it was 68.6%; in experiment [4], 75%; in experiment [5], 78.7%; in experiment [6], 78.1%. In addition, the Activity in experiment [7] was 49.5%; in experiment [8], 29.8%; in [9], 95.3%; in experiment [10], 96.1%.
Turning to `CC(C)(c1ccc(OCC2CN(S(C)(=O)=O)C2)cc1)c1cc(Cl)c(OCC2CCN(C(=O)CCCCCNc3ccc4c(c3)C(=O)N(C3CCC(=O)NC3=O)C4=O)CC2)c(C#N)c1` (stereo not given), the Activity stood at 51.3% in [1]; 78.3% in experiment [2]; 73.9% in experiment [3]; 81.2% in [4]; 53.6% in experiment [5]; 75.6% in [6]. Further, the Activity in experiment [7] was less than 5%; in experiment [8], 48%; in [9], 93.2%; in experiment [10], 96.8%.
Consider `CC(C)(c1ccc(OCC2CCN(S(C)(=O)=O)CC2)cc1)c1cc(Cl)c(OCC2CCN(C(=O)CCCCCNc3ccc4c(c3)C(=O)N(C3CCC(=O)NC3=O)C4=O)CC2)c(C#N)c1` (stereo not given), for which the Activity in [1] is 71.5%; in experiment [2], 78%; in experiment [3] it was 70.6%; in [4], 71.9%; in [5], less than 5%; in experiment [6] it was 34.5%. In addition, the Activity is less than 5% in experiment [7], 40.6% in experiment [8], 95.6% in experiment [9] and 96.7% in experiment [10].
For `COc1ccc(C(C)(C)c2cc(Cl)c(OCC3CCN(C(=O)CCCCCNc4cc5c(cc4F)C(=O)N(C4CCC(=O)NC4=O)C5=O)CC3)c(C#N)c2)cc1` (stereo not given), the Activity in experiment [1] is less than 5%; in experiment [2], less than 5%; in [3] it was less than 5%; in [4] it was 25.2%; in [5], 25.1%; in experiment [6] it was 17.3%. The Activity in [7] is less than 5%; in experiment [8], 10%; in [9], 74.6%; in experiment [10] it was 88.6%.
Take `CC(C)(c1ccc(OCc2ccncn2)cc1)c1cc(Cl)c(OCC2CCN(C(=O)CCCCCNc3ccc4c(c3)C(=O)N(C3CCC(=O)NC3=O)C4=O)CC2)c(C#N)c1` (stereo not given): the Activity in experiment [1] was 75.1%; in experiment [2], 80.5%; in experiment [3], 75.5%; in [4] it was 77.7%; in experiment [5], 61.3%; in experiment [6] it was 58.8%. The Activity was found to be 72.3% in experiment [7], 84.5% in [8], 97.5% in experiment [9] and 97.2% in experiment [10].
Turning to `COc1ccc(C(C)(C)c2ccc(OCC3CCN(C(=O)CCCCCNc4ccc5c(c4)C(=O)N(C4CCC(=O)NC4=O)C5=O)CC3)cc2)cc1` (stereo not given), the Activity was 38.5% in [1]; 79.5% in experiment [2]; 6.7% in experiment [3]; 57.4% in experiment [4]; 20.7% in experiment [5]; 83.9% in [6]. The Activity in [7] amounted to 23.3%; in [8] it was 54.5%; in experiment [9], 88.3%; in experiment [10], 94%.
For `CC(C)(c1ccc(OCC2CCOC2)cc1)c1cc(Cl)c(OCC2CCN(C(=O)CCCCCNc3ccc4c(c3)C(=O)N(C3CCC(=O)NC3=O)C4=O)CC2)c(C#N)c1` (stereo not given), the Activity in experiment [1] is 72.5%; in experiment [2], 73.5%; in experiment [3], 76.8%; in experiment [4], 89.1%; in [5], 83.9%; in experiment [6], 85.1%. The Activity in experiment [7] came out at 43.6%; in [8], 40.1%; in [9], 96.6%; in [10] it was 96.1%.
As for `CC(C)(c1ccc(OCc2ccccc2)cc1)c1cc(Cl)c(OCC2CCN(C(=O)CCCCCNc3ccc4c(c3)C(=O)N(C3CCC(=O)NC3=O)C4=O)CC2)c(C#N)c1` (stereo not given), the Activity was less than 5% in [1]; 50.1% in experiment [2]; less than 5% in experiment [3]; 58.5% in experiment [4]; less than 5% in experiment [5]; 21.7% in [6]. Besides, the Activity in experiment [7] was less than 5%; in experiment [8], 21.1%; in [9] it was 81.5%; in experiment [10], 97.3%.

The values above are taken from ChEMBL document CHEMBL6177998, “Rational Design of Dual Degraders by Incorporating Molecular Glue Structural Features into PROTAC Degraders” (J Med Chem, 2025).
